Data reported in patent publication US7449546B2, “Method for extending storage of glutathione solutions and methods for treating Parkinson's disease with said stored glutathione solutions” (Kromar Medical Corporation, priority 2001, dated 2008).
Read-outs that look alike come from different tables or passages of the source.

How the values were obtained:
[1] = test system: liver cancer; details: oral, daily amount of 5,000 mg, eight patients; cited from earlier work
[2] = for [G-SH]/[G-SH]0: storage at 25° C.
Experimental: This solution was stored at room temperature (25° C.) for 74 days.

[3] = for [G-SH]/[G-SH]0: storage at 5° C.
[4] = solution temperature lowered by 20° C. from room temperature

concentration of reduced glutathione relative to its initial value ([2]; room temperature (25° C.), within three weeks, 180 mg/ml, pH 6.4): 90% | [G-SH]/[G-SH]0 ([2]; 1 day, 180 mg/ml, pH 6.4): 0.94 | [G-SH]/[G-SH]0 ([2]; 2 days, 180 mg/ml, pH 6.4): 0.99 | [G-SH]/[G-SH]0 ([2]; 3 days, 180 mg/ml, pH 6.4): 0.99 | [G-SH]/[G-SH]0 ([2]; 7 days, 180 mg/ml, pH 6.4): 0.98 | [G-SH]/[G-SH]0 ([2]; 14 days, 180 mg/ml, pH 6.4): 0.95 | [G-SH]/[G-SH]0 ([2]; 21 days, 180 mg/ml, pH 6.4): 0.90 | [G-SH]/[G-SH]0 ([2]; 28 days, 180 mg/ml, pH 6.4): 0.89 | [G-SH]/[G-SH]0 ([2]; 56 days, 180 mg/ml, pH 6.4): 0.78 | [G-SH]/[G-SH]0 ([2]; 74 days, 180 mg/ml, pH 6.4): 0.68 | dimerization of glutathione [3, 4]: essentially stopped | storage period of the reduced glutathione solution [3, 4]: significantly greater than four months | [G-SH]/[G-SH]0 ([3]; 1 day, 189 mg/ml, pH 6.4): 1.02 | [G-SH]/[G-SH]0 ([3]; 2 days, 189 mg/ml, pH 6.4): 1.01 | [G-SH]/[G-SH]0 ([3]; 3 days, 189 mg/ml, pH 6.4): 1.01 | [G-SH]/[G-SH]0 ([3]; 7 days, 189 mg/ml, pH 6.4): 1.02 | [G-SH]/[G-SH]0 ([3]; 14 days, 189 mg/ml, pH 6.4): 1.00 | [G-SH]/[G-SH]0 ([3]; 21 days, 189 mg/ml, pH 6.4): 0.99 | [G-SH]/[G-SH]0 ([3]; 28 days, 189 mg/ml, pH 6.4): 1.02 | [G-SH]/[G-SH]0 ([3]; 56 days, 189 mg/ml, pH 6.4): 1.00 | [G-SH]/[G-SH]0 ([3]; 84 days, 189 mg/ml, pH 6.4): 1.00 | [G-SH]/[G-SH]0 ([3]; 112 days, 189 mg/ml, pH 6.4): 0.98 | decrease of reduced glutathione concentration over time ([3]; stored at 5° C., monitored for four months, 189 mg/ml, 0.005M octylammonium orthophosphate, pH 6.4): no decrease over time
SMILES: N[C@@H](CCC(=O)N[C@@H](CS)C(=O)NCC(=O)O)C(=O)O [reduced glutathione]
effects in patients with liver cancer [1]: modest effects in women but not in men | safe storage time in aqueous solution ([2]; room temperature, absence of oxidation catalysts, criterion at least 90% of initial concentration): cannot be safely stored in aqueous solution at room temperature for longer than three weeks
